Test results as given in the supplement of paper PMC10307832.

What was measured:
Test in all cases: relative viability (nuclei count vs DMSO), 5 days (fraction); higher = more cells survive
[1] = compound: CC1CC(=O)N(C2=CN=C(N=C2N1C3CCCC3)NC4=C(C=C(C=C4)C(=O)NC5CCN(CC5)C)OC)C [NPK76-II-72-1] + CCNC(=O)c1noc(-c2cc(C(C)C)c(O)cc2O)c1-c1ccc(CN2CCOCC2)cc1 [Luminespib] (partner 0.01 µM)
Method in brief: (§1)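 Medians of duplicate plates are given as relative viability. That measure is the nuclei count in treated wells divided by the count in vehicle wells. Counts were taken on 4× images of lung cancer cell lines in 1536-well plates, 5 days after pin-tool dosing the day after seeding with one drug alone or a fixed anchor-drug dose plus five library-drug doses (not always all listed) in √10 steps.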

BI-2536 + Luminespib = compound: CC[C@@H]1C(=O)N(C)c2cnc(Nc3ccc(C(=O)NC4CCN(C)CC4)cc3OC)nc2N1C1CCCC1 [BI-2536] + CCNC(=O)c1noc(-c2cc(C(C)C)c(O)cc2O)c1-c1ccc(CN2CCOCC2)cc1 [Luminespib] (partner 0.01 µM)
Method in brief: as §1

BI-2536 + Phenformin = compound: CC[C@@H]1C(=O)N(C)c2cnc(Nc3ccc(C(=O)NC4CCN(C)CC4)cc3OC)nc2N1C1CCCC1 [BI-2536] + N=C(N)NC(=N)NCCc1ccccc1 [Phenformin] (partner 250 µM)
Method in brief: as §1

[2] = compound: CC1CC(=O)N(C2=CN=C(N=C2N1C3CCCC3)NC4=C(C=C(C=C4)C(=O)NC5CCN(CC5)C)OC)C [NPK76-II-72-1] + N=C(N)NC(=N)NCCc1ccccc1 [Phenformin] (partner 250 µM)
Method in brief: as §1

Work on UMC-11 yielded a relative viability ([1]; first compound 0.01 µM) of 0.997, a relative viability ([1]; first compound 0.03162 µM) of 1 and a relative viability ([1]; first compound 0.1 µM) of 0.934. The relative viability ([1]; first compound 1 µM) was 0.988, the relative viability (BI-2536 + Luminespib; first compound 0.01 µM) was 0.925 and the relative viability (BI-2536 + Luminespib; first compound 0.03162 µM) was 0.725. It also gave a relative viability (BI-2536 + Luminespib; first compound 0.1 µM) of 0.232, a relative viability (BI-2536 + Luminespib; first compound 0.3162 µM) of 0.188 and a relative viability (BI-2536 + Luminespib; first compound 1 µM) of 0.168. It also gave a relative viability (BI-2536 + Phenformin; first compound 0.01 µM) of 0.286, a relative viability (BI-2536 + Phenformin; first compound 0.03162 µM) of 0.233 and a relative viability (BI-2536 + Phenformin; first compound 0.1 µM) of 0.177. For the same cell line, the relative viability (BI-2536 + Phenformin; first compound 0.3162 µM) was 0.192, the relative viability (BI-2536 + Phenformin; first compound 1 µM) was 0.175 and the relative viability ([2]; first compound 0.01 µM) was 0.318. The relative viability ([2]; first compound 0.03162 µM) was 0.32, the relative viability ([2]; first compound 0.1 µM) was 0.346 and the relative viability ([2]; first compound 1 µM) was 0.344.
